This is an account of results in patent US11135184B2, “Formulations for epidermal repair” (CLARIDEI LABORATORIES, INC., priority 2013, dated 2021).

Data set [1] has as its system 11β-hydroxysteroid dehydrogenase. The settings on record: cited from earlier work.
Data set [2] relates to cutaneous lupus erythematosus. Nature of the data set: prior treatment of a patient with cutaneous lupus erythematosus. Format: in vivo, human. The settings on record: one patient. The source says:
A patient presented with a three year history of cutaneous lupus erythematosus. They had been suffering from systemic lupus erythematosus for some time before the rash that is characteristic of cutaneous lupus erythematosus appeared on their chest, arms, neck and face.
Prior to treatment with a treatment regime utilizing the formulations of the present disclosure, this patient had been treated with several different treatment regimens representing the standard of care for cutaneous lupus erythematosus patients. […] All attempts to reduce the patient's suffering from cutaneous lupus erythematosus had brought little to no relief.

Data set [3] concerns ultraviolet radiation damage. The settings on record: in vitro model of cutaneous photoaging; cited from earlier work.
For data set [4] the following is noted: cited from earlier work.
Data set [5] relates to contact dermatitis. The settings on record: mice, cited from earlier work.
Data set [6] deals with Staphylococcus aureus. The settings on record: in vitro; cited from earlier work.
The subject of data set [7] is Mycobacterium smegmatis. The settings on record: in vitro; cited from earlier work.
In data set [8] the test system is Candida albicans. The settings on record: in vitro; cited from earlier work.
Data set [9] deals with atopic dry skin. The settings on record: cited from earlier work.
In data set [10] the test system is serine palmitoyltransferase. The settings on record: cited from earlier work.
In data set [11] the test system is 3′-5′ cyclic AMP phosphodiesterase. The settings on record: cited from earlier work.
For data set [12], the system named is lymphocytic transformation. The settings on record: cited from earlier work.
Data set [13] concerns the target T1, Δ4β-reductase (Homo sapiens, UniProt P51857).
T1 sequence (P51857 1-326): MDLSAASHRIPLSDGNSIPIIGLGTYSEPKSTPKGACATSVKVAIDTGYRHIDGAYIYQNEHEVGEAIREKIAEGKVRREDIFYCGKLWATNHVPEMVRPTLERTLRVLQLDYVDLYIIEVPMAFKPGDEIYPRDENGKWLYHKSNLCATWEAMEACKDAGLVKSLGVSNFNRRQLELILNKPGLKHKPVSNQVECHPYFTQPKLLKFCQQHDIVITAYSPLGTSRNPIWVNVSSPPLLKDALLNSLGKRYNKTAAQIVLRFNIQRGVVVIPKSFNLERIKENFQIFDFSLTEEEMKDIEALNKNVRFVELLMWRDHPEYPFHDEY
The settings on record: in vitro; cited from earlier work.

Data set [14] relates to histamine-induced scratching behavior. The settings on record: applied to the skin of mice; cited from earlier work.
Data set [15] deals with NF-kappaB. The settings on record: histamine-stimulated skin; cited from earlier work.
Data set [16] has as its system guinea pig ileum. The settings on record: cited from earlier work.

Take `C[C@H](CCC(=O)O)[C@H]1CC[C@H]2[C@@H]3[C@H](O)C[C@@H]4C[C@H](O)CC[C@]4(C)[C@H]3CC[C@]12C` [chenodeoxycholic acid]: the “inhibition of 11β-hydroxysteroid dehydrogenase” value in data set [1] is on record as “inhibits”.

Take `CCN(CC)CCCC(C)Nc1ccnc2cc(Cl)ccc12` (centres unmarked) [chloroquin]: in data set [2] (orally administered), the “effect on cutaneous lupus erythematosus” value is “little or no effect”.

For the molecule `O=C1O[C@H](CO)[C@@H](O)[C@H](O)[C@H]1O` [glucono delta-lactone, Glucono delta-lactone], the “protection against ultraviolet radiation” value in data set [3] is “photoprotective activity”.

In the case of `C[C@]12CCC(=O)C=C1CC[C@@H]1[C@@H]2C(=O)C[C@@]2(C)[C@H]1CC[C@]2(O)C(=O)CO` [cortisone], the “effect on cutaneous lupus erythematosus” value in data set [2] (shots) was “little or no effect”.

Take `CC1(C)[C@@H](OC(=O)CCC(=O)O)CC[C@]2(C)[C@H]3C(=O)C=C4[C@@H]5C[C@@](C)(C(=O)O)CC[C@]5(C)CC[C@@]4(C)[C@]3(C)CC[C@@H]12` [Carbenoxolone]: the “inhibition of 11β-hydroxysteroid dehydrogenase” value in data set [1] is given as “inhibits”.

For `O=C(O)[C@H](O)[C@@H](O)[C@H](O[C@@H]1O[C@H](CO)[C@H](O)[C@H](O)[C@H]1O)[C@H](O)CO` [Lactobionic acid, 4-O-β-galactopyranosyl-β-gluconic acid], the pKa in [4] is reported as 3.8.

Consider `CC(=O)Oc1ccccc1C(=O)O` [aspirin], for which the “effect on cutaneous lupus erythematosus” value in data set [2] (orally administered) is recorded as “little or no effect”.

As to `C[C@]12C=CC(=O)C=C1CC[C@@H]1[C@@H]2C(=O)C[C@@]2(C)[C@H]1CC[C@]2(O)C(=O)CO` [prednisone], the “effect on cutaneous lupus erythematosus” value in data set [2] (orally administered) is recorded as “little or no effect”.

As for `CC1(C)[C@@H](O[C@H]2O[C@H](C(=O)O)[C@@H](O)[C@H](O)[C@H]2O[C@@H]2O[C@H](C(=O)O)[C@@H](O)[C@H](O)[C@H]2O)CC[C@]2(C)[C@H]3C(=O)C=C4[C@@H]5C[C@@](C)(C(=O)O)CC[C@]5(C)CC[C@@]4(C)[C@]3(C)CC[C@@H]12` [glycyrrhizic acid, Glycyrrhizic acid], the “effect on contact dermatitis” value in data set [5] (administered orally) was “ineffective”. In data set [5] (given intraperitoneally), the “effectiveness against contact dermatitis compared with prednisolone” value is recorded as “more effective than prednisolone” and the “suppression of contact dermatitis” value is listed as “suppress”. Further, the “growth of Staphylococcus aureus” value in data set [6] is reported as “inhibit the growth”. In [7], the “growth of Mycobacterium smegmatis” value was “inhibit the growth”. Besides, the “growth of Candida albicans” value in data set [8] is recorded as “inhibit the growth”.

As for `NC(=O)c1cccnc1` [Niacinamide], the transepidermal water loss entry in [9] (atopic dermatitis) is “decrease”. Besides, the “moisturizer effectiveness compared with white petrolatum” value in [9] (atopic dry skin) was “more effective moisturizer than white petrolatum”. In [10], the “de novo synthesis of ceramides (e.g., glucosylceramide and sphingomyelin)” value was “stimulating”; the “expression of serine palmitoyltransferase” value is “up-regulated”. Besides, the “inhibition of 3′-5′ cyclic AMP phosphodiesterase” value in data set [11] is reported as “Inhibit”. For the same molecule, the antigen-induced lymphocytic transformation entry in data set [12] is “suppress”.

Consider `CC1(C)[C@@H](O)CC[C@]2(C)[C@H]3C(=O)C=C4[C@@H]5C[C@@](C)(C(=O)O)CC[C@]5(C)CC[C@@]4(C)[C@]3(C)CC[C@@H]12` [glycyrrhetinic acid, 18β-glycyrrhetinic acid], for which the “inhibition of Δ4β-reductase” value in data set [13] is “inhibit”. Moreover, the “inhibition of 11β-hydroxysteroid dehydrogenase” value in data set [1] is reported as “inhibit”.

For `CCCCCCCCCCCCCC[C@@H](O)[C@@H](O)[C@@H](N)CO` [phytosphingosine, Phytosphingosine], in data set [14], the histamine-induced scratching behavior entry is “effectively inhibited”. For the same molecule, in data set [15], the “activation of the transcription factor NF-kappaB” value is “inhibited”. The “anti-histamine effects in the Magnus test” value in data set [16] is on record as “potent anti-histamine effects”.

Consider `CCN(CCO)CCCC(C)Nc1ccnc2cc(Cl)ccc12.O=S(=O)(O)O` (centres unmarked) [plaquenyl], for which the “effect on cutaneous lupus erythematosus” value in data set [2] (orally administered) was “little or no effect”.

For the molecule `CCCCCCCCCCCCCCCCCC(=O)N[C@@H](CO)[C@H](O)[C@H](O)CCCCCCCCCCCCCC` [N-stearoyl-phytosphingosine, N-Stearoyl-phytosphingosine], the histamine-induced scratching behavior entry in [14] is given as “effectively inhibited”. Further, in [15], the “activation of the transcription factor NF-kappaB” value is on record as “inhibited”. Besides, the “anti-histamine effects in the Magnus test” value in data set [16] was “potent anti-histamine effects”.
